Values quoted from earlier work as cited in patent US20200030253A1, “Methods and compositions for treatment of body conditions” (priority 2018, published 2020).

Settings: octanol-water

## C=C(C)[C@@H]1CCC(C)=C[C@H]1c1c(O)cc(CCCCC)cc1O [Cannabidiol]
  Koctanol-water (lipophilicity): 6-7
